Series [1] relates to pPKB S473 in A2058 cells. Briefly: In-cell Western blot, pPKB S473. The note with it: Homo sapiens, A2058, 1 h, 1 hour treatment, normalized to α-tubulin. Type of series: cell-based.
Description: (§1) Cells are fixed with 4% paraformaldehyde for 30 minutes at room temperature, washed 2 times with 1% BSA in PBS, permeabilized with 0.1% Triton X-100 in PBS/1% BSA for 30 minutes at room temperature and blocked with 5% goat serum in PBS/1% BSA/0.1% Triton X-100 for 30 minutes at room temperature. […] Cells are washed 3 times 5 minutes with PBS/1% BSA/0.1% triton and plate scanned with the Odyssey Infrared Scanning system using both 700 and 800 nm channels. […] To correct for background staining in the data analysis wells are treated only with secondary antibodies.
(§2) For data analysis the mean background signal from channel 700 nm and 800 nm are subtracted from each signal in channel 700 nm and 800 nm, respectively.
(§3) IC50 values of each compound are determined by plotting the normalized pPBK S473 and pS6 S235/S236 signals, respectively, versus the compound concentrations (in logarithmic scale) and then by fitting a sigmoidal dose-response curve with variable slope to the data using GraphPad™ Prism.
Series [2] concerns pS6 S235/S236 in A2058 cells. Briefly: In-cell Western blot, pS6 S235/S236. The note with it: 1 hour treatment, normalized to α-tubulin. Type of series: cell-based.
Description: as §1, §2, §3
The nature of series [3]: In vivo pig skin penetration. The note with it: living pig, single topical application, propylene glycol preparations.
Series [4] is described as follows: Ex vivo pig skin penetration, formulations in 80% SBECD. Type of series: in vitro ADME.
Description: The control formulation Aldara (5% imiquimod) was applied to detect variations in skin permeability (local variability in the same animal and inter-subject variability). The stratum corneum was removed by tape stripping to avoid contamination during the biopsy extraction. […] One biopsy was taken from each control site. Additionally, 5 blank samples were taken.
A short description of series [5]: Ex vivo pig skin PK profile, propylene glycol formulations. Type of series: in vitro ADME.
Description: Excised pig skin was placed in a climate chamber to control temperature and humidity. […] Before biopsies were taken the stratum corneum was removed by tape stripping and biopsies consisted of the remaining epidermis and entire dermis.
Series [6] can be described thus: Stress stability in propyleneglycol at 60° C. (HPLC). The class given is physicochemical. Conditions: 1% in propyleneglycol, 72 h. On the procedure:
The fraction of residual test item was determined by HPLC. […] During the observation period of 72 hrs.
Equal concentrations (1%) of the test items in propyleneglycol were heated to 60° C. and the fraction of residual test item was determined by HPLC.

Series [7] has as its target T1, N-terminally GST-tagged mTOR (truncated version: amino acids 1360-2549) (Homo sapiens, UniProt P42345).
T1 construct: truncated version: amino acids 1360-2549; purchased Life Technologies PR8683B
Description: In vitro mTOR binding assay (LanthaScreen TR-FRET). The note with it: 10 nM Tracer 314, 30 min RT.
Description: In Vitro mTOR Binding Assay
A 10-point 4-fold serial dilution (highest concentration at 10 μmol/L and lowest concentration at 40 pmol/L) of each compound was tested for mTOR binding in duplicate in a 384-well plate. […] After 30 min incubation at RT, time-resolved FRET was measured with a Synergy 4 multi-mode microplate reader (Biotek Instruments) using the following settings: 100 microsecs delay before data collection, 200 microsecs time for data collection, 10 measurements per data point.
IC50 values of each compound were determined by plotting the emission ratio versus the compound concentrations (in logarithmic scale) and then by fitting a sigmoidal dose-response curve with variable slope to the data using GraphPad™ Prism.

Consider four compounds from US11414426B2, “Treatment of skin disorders” (PIQUR THERAPEUTICS AG, priority 2017, dated 2022).

Marks after values point to notes of the source that are not given here.

T1 sequence (P42345 1360-2549): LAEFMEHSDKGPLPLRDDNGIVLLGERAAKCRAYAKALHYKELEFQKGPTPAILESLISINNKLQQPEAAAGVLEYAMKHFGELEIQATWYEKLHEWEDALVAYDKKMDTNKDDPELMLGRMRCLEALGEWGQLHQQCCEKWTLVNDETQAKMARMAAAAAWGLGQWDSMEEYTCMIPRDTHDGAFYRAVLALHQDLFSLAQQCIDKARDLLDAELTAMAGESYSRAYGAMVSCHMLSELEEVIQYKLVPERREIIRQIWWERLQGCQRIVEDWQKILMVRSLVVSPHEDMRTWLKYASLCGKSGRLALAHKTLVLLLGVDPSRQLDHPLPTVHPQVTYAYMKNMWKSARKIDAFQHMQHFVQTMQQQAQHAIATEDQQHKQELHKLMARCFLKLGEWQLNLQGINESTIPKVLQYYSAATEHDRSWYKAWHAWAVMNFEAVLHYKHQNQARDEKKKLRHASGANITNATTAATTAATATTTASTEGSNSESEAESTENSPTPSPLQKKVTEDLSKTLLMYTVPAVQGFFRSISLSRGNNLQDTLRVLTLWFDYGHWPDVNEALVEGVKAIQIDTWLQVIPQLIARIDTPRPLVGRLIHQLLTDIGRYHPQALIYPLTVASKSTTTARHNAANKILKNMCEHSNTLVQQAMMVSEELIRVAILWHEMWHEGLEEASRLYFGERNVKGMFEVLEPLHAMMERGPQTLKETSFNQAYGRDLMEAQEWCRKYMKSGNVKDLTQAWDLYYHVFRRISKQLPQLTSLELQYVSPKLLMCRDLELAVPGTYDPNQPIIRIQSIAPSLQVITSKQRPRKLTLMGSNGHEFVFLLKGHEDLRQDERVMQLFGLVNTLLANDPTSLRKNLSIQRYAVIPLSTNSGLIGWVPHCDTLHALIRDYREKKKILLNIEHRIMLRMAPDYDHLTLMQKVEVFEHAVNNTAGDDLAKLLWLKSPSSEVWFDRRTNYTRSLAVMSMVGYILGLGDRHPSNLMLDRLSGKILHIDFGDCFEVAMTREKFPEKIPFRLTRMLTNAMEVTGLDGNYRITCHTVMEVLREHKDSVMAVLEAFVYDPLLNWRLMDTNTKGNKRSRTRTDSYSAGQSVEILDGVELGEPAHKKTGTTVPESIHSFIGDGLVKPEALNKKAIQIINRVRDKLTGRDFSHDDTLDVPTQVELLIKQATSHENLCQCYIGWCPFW

On to `Nc1cc(C(F)(F)F)c(-c2cc(N3CCOCC3)nc(N3CCOCC3)n2)cn1` [BKM 120], for which the half-maximal inhibitory concentration (IC50) in series [1] came to 0.39 µM; in series [2], 0.64 µM.
Regarding `Nc1cc(C(F)F)c(-c2nc(N3C4CCC3COC4)nc(N3C4CCC3COC4)n2)cn1` [Compound 3, 5-(4-(3-oxa-8-azabicyclo[3.2.1]octan-8-yl)-6-(3-oxa-8-azabicyclo[3.2.1]octan-8-yl)-1,3,5-triazin-2-yl)-4-(difluoromethyl)pyridin-2-amine], the “levels in epidermis and dermis after tape stripping” value in series [3] is “significant levels”. In addition, in series [4] (ex vivo pig skin), the “intrinsic penetration properties in comparison with Aldara (5% imiquimod)” value is “slightly lower”. Besides, the “penetration into pig skin (lower epidermis and dermis)” value in series [4] (ex vivo, 1% experimental formulations, 80% SBECD) is “penetrated into pig skin (lower epidermis and dermis) to a significant extent”. In addition, in series [5] (1% in 100% PG), the “skin concentration / skin PK profile” value is “comparable to 1*”. In addition, the “drug concentrations in the lower epidermis and dermis” value in series [5] (1% preparations containing propylene glycol, vs Aldara) was “high drug concentrations in the lower epidermis and dermis”.
For the compound `CO[C@H]1C[C@@H]2CC[C@@H](C)[C@@](O)(O2)C(=O)C(=O)N2CCCC[C@H]2C(=O)O[C@H]([C@H](C)C[C@@H]2CC[C@@H](O)[C@H](OC)C2)CC(=O)[C@H](C)/C=C(\C)[C@@H](O)[C@@H](OC)C(=O)[C@H](C)C[C@H](C)/C=C/C=C/C=C/1C` [Sirolimus], the “degraded (fraction of test item lost, HPLC)” value in series [6] is given as 39%.
The compound `C[C@H]1COCCN1c1nc(-c2cnc(N)cc2C(F)F)nc(N2CCOC[C@@H]2C)n1` [Compound 6] had an IC50 in series [7] of 0.023 µM. This counts as double-digit nanomolar.
